According to US20140045809A1, “CORROLES FOR NEUROPROTECTION AND NEURORESCUE” (priority 2008, published 2014):
Entries after “also recorded” stand apart in the source; their conditions may differ.

How the values were obtained:
[1] = Catalytic decomposition of peroxynitrite (PN), stopped-flow kinetics (Table 1); format: biochemical
Procedure: SOD activity (enzyme-like catalytic decomposition of superoxide anion radical) of the corroles 1C-Fe, 6C-Fe, 1C-Mn, 1C-Cu, 2C-Mn and 3C-Mn was examined via the cytochrome C assay. The catalytic rate constants for decomposition of peroxynitrite (PN) by the newly prepared iron corrole 6C-Fe and manganese corrole 3C-Mn were determined via stopped-flow kinetics as previously described for corroles 1C-Fe, 1C-Mn, and 2C-Mn (Mahammed and Gross, 2006; Gershman et al., 2007). These tests are performed in order to estimate how electronic and structural variables affect reactivity, which is a crucial factor for design of new complexes.

RIN-m cells = assay: Protection of RIN-m beta cells against H2O2 toxicity (MTT); format: cell-based, rat; details: for cytoprotective effect against H2O2-induced toxicity: H2O2 150 μM
Procedure: Two insulin-secreting beta cell lines, rat insulinoma (INS-1E) and RIN-m cells, were used to examine the protective effect of corrole 1C-Fe. The cells were cultured at 37° C., in a humid 5% CO2, 95% air environment in regular RPMI-1640 medium (Invitrogen) supplemented with 5% fetal calf serum (FCS).
After 2 days of culture, RIN-m cells (5×10^4 cells/well in 96-well plates) were treated with corrole 1C-Fe (1-50 μM) before addition of 35 μM of H2O2. Cell viability was evaluated by a colorimetric assay for mitochondrial function estimation using the MTT test as previously described (Gassen et al., 1998) and expressed as percentage of control.
RIN-m cells were grown as described in Example 5. After 3 days of culture, RIN-m cells (2.5×10^4 cells/well in 96-well plates) were treated with corroles 1C-Fe or 5C-Fe or porphyrin 1P-Fe (1 and 20 μM), added 30 min prior to treatment with 35 μM H2O2 and further incubated for 24 h. Cell injury was evaluated by MTT test. […] […].
Protective effect of iron(III) corrole complexes against H2O2-induced toxicity (150 μM) was compared to that of manganese(III) corroles and related porphyrin. […].

SH-SY5Y cells [2] = assay: Neuroprotection/neurorescue against SIN-1-induced cell death in SH-SY5Y cells; format: cell-based, human; details: for protection against SIN-1 (MTT reduction analysis and ELISA assay): 30 min before SIN-1, 24 h (Example 12)
Procedure: SH-SY5Y cells were cultured in DMEM-Eagle/F-12(HAM) (1:1) containing 10% FCS. Cells were resuspended in medium containing 2% FCS, seeded in microtiter plates (96 wells) and allowed to attach for 24 h before initiation of treatment. […]

cleaved caspase-3 = assay: Cleaved caspase-3 level in 6-OHDA-treated SH-SY5Y cells, immunofluorescence; format: cell-based, human; details: 20 μM, 30 min before 6-OHDA (40 μM), 24 h
Procedure: (§1) SH-SY5Y cells were pretreated with or without corroles 1C-Fe, 2C-Mn and 3C-Mn and porphyrins 1P-Fe and 2P-Mn (20 μM), 30 min before exposure to 6-OHDA (40 μM) for a subsequent 24 h period. Cell viability was evaluated by MTT test and cell death was assessed using the apoptotic cell death detection ELISA kit. For neurorescue, SH-SY5Y cells were first exposed to 40 μM 6-OHDA for 0.5. 1, 1.5 and 3 h, followed by the addition of the compounds 1C-Fe, 2C-Mn and 3C-Mn (20 μM) and incubated for further 24 h. Growth-associated protein (GAP-43) was detected by fluorescence microscopy using a specific primary antibody. Apoptotic nuclei were determined by terminal deoxynucleotidyl transferase-mediated UTP-digoxigenin nick end labeling analysis. 4′,6-Diamidino-2-phenylnidole (DAPI) staining was applied for nuclear labeling. […]
Since 6-OHDA is also known to induce apoptosis in various cell types, including SH-SY5Y (von Coelln et al. 2001; Nie et al. 2002; Shimizu et al. 2002; Jordan et al. 2004), we further tested effect of corroles on the levels of the apoptotic marker, cleaved caspase-3, a major executer of the mitochondrial intrinsic pathway of apoptosis.

SH-SY5Y cells [3] = format: cell-based; details: for protection against 6-OHDA compared with porphyrins 1P-Fe and 2P-Mn / 6-OHDA-induced cytotoxicity (MTT, cell death ELISA) / cell mortality, morphology and apoptotic nuclei (GAP-43 immunofluorescence, TUNEL, DAPI): 20 μM; for protection against 6-OHDA compared with porphyrins 1P-Fe and 2P-Mn: 6-OHDA 40 μM, immunofluorescence; for 6-OHDA-induced cytotoxicity (MTT, cell death ELISA) / cell mortality, morphology and apoptotic nuclei (GAP-43 immunofluorescence, TUNEL, DAPI): 30 min before 6-OHDA (40 μM)
Procedure: SH-SY5Y cells were cultured in DMEM-Eagle/F-12(HAM) (1:1) containing 10% FCS. Cells were resuspended in medium containing 2% FCS, seeded in microtiter plates (96 wells) and allowed to attach for 24 h. To examine the neuroprotective effect, cells were pretreated for 30 min with corroles 1C-Fe and 5C-Fe (1-20 μM), and were then exposed to 6-OHDA (60 μM) for further 24 h. For neurorescue assessment, SH-SY5Y cells were first treated with 6-OHDA (60 μM) for 0.5 h, 1.5 h, 3 h and 6 h followed by the addition of compounds 1C-Fe and 5C-Fe (10 μM) for further 24 h.
as §1

[4] = Rescuing DMSO from damage attributed to the hydroxyl radical (Fenton reaction); format: biochemical; details: for Yield (%) or amount of product (Formaldehyde): substrate DMSO; for preventing oxidative damage / protection against metal-induced oxidation of substrates: summary of Table 3
Description: Corrole complexes were examined with respect to their efficiency of rescuing DMSO from damage attributed to the hydroxyl radical, formed via the Fenton reaction that also involves superoxide anion radical and hydrogen […]. It also mimics reaction occurring in biological systems that are exposed to metal toxicity, the situation that occurs in diseases caused by brain iron accumulation.

NSC-34 cells = format: cell-based, mouse; details: 20 μM, 24 h; for SIN-1-induced cytotoxicity (MTT and ELISA): 30 min before SIN-1 (700 μM)
Procedure: The neuroprotective effects of the iron corrole 1C-Fe and analogous porphyrin 1P-Fe against H2O2 insult were further examined in the motor neuron cell line, NSC-34. NSC-34 cell is a hybrid neuroblastoma x spinal cord (NSC) cell line that resembles motor neurons, displaying a multipolar neuron-like phenotype. Mouse motoneuronal NSC-34 cells were pretreated with or without the corroles 1C-Fe or 2C-Mn or the structurally-related porphyrins 1P-Fe, 2P-Mn, respectively, 30 min before exposure to H2O2 (200 μM) or SIN-1 (700 μM) for a subsequent 24 h period. Cell viability (FIGS. 18A, 19A) was evaluated by MTT test and cell death (FIGS. 18B, 19B) was assessed using the apoptotic cell death detection ELISA kit. [The graphs in FIGS. 18A-18B and 19A-19B present results expressed as percentage of untreated control.

nitrotyrosine (Ntyr) = assay: SIN-1-induced cellular protein nitration, nitrotyrosine immunofluorescence in SH-SY5Y cells; format: cell-based, human; details: 20 μM corrole, SIN-1 700 μM, 24 h
Procedure: To determine the effect of the corroles on SIN-1-induced cellular protein nitration, SH-SY5Y neuroblastoma cells were treated with SIN-1 (700 μM) in the absence or presence of 20 μM of the corroles 1C-Fe, 2C-Mn, and 3C-Mn. Protein nitration was detected by immunofluorescence analysis using a monoclonal antibody against nitrotyrosine (Ntyr), a biological marker of peroxynitrite.

[5] = CuSO4/ascorbate, no additive 44 μM
[6] = CuSO4/glutathione, no additive 11 μM

Compound	kcat, catalytic rate constant for decomposition of PN [1] [M⁻¹ s⁻¹]	cytoprotective effect against H2O2-induced toxicity (RIN-m cells)	protection against SIN-1 (MTT reduction analysis and ELISA assay) (SH-SY5Y cells [2])	6-OHDA-induced increase of cleaved caspase-3 (cleaved caspase-3)	protection against 6-OHDA compared with porphyrins 1P-Fe and 2P-Mn (SH-SY5Y cells [3])	6-OHDA-induced cytotoxicity (MTT, cell death ELISA) (SH-SY5Y cells [3]; 24 h)	cell mortality, morphology and apoptotic nuclei (GAP-43 immunofluorescence, TUNEL, DAPI) (SH-SY5Y cells [3]; 24 h)	Yield (%) or amount of product (Formaldehyde) [4, 5] [µM]	Yield (%) or amount of product (Formaldehyde) [4, 6] [µM]	preventing oxidative damage / protection against metal-induced oxidation of substrates [4]	SIN-1-induced cytotoxicity (MTT and ELISA) (NSC-34 cells)	nitrotyrosine (Ntyr) staining, SIN-1-induced (nitrotyrosine (Ntyr))	further results
C[n+]1ccc(C2=C3C=CC4=[N+]3[Mn-]35[n]6c2ccc6-c2ccc([n]23)C(c2cc[n+](C)cc2)=c2ccc([n]25)=C4c2c(F)c(F)c(F)c(F)c2F)cc1.[I-].[I-] (stereo not drawn) [2C-Mn, 5,15-bis(4-N-methyl-pyridilium)-10-pentafluorophenyl-corrolato manganese(III) diiodide salt]	400000	totally inefficient; also recorded: inefficiency	protect, in a dose-dependent manner	totally	remarkable superiority over the porphyrins	significantly attenuated 6-OHDA-induced cytotoxicity	significantly attenuated 6-OHDA-induced cell mortality, improved cell morphology and reduced the number of apoptotic nuclei	7	5	protect better than corrole 1C-Mn	significantly attenuated	totally abolished	–
O=S(=O)(O)c1cc2[n]3c1C(c1c(F)c(F)c(F)c(F)c1F)=C1C=CC4=[N+]1[Fe-]31[n]3c(cc(S(=O)(=O)O)c3-2)C(c2c(F)c(F)c(F)c(F)c2F)=c2ccc([n]21)=C4c1c(F)c(F)c(F)c(F)c1F (stereo not drawn) [1C-Fe, 2,17-bis(sulfonato)-5,10,15-tris(pentafluorophenyl)-corrolato iron(III)]	2e+06	showed cytoprotective effects	protect, in a dose-dependent manner	abolished partially	remarkable superiority over the porphyrins	significantly attenuated 6-OHDA-induced cytotoxicity	significantly attenuated 6-OHDA-induced cell mortality, improved cell morphology and reduced the number of apoptotic nuclei	0	0	very potent in preventing the oxidative damage	significantly attenuated	partial (albeit quite remarkable) reduction in Ntyr staining	protective effect against H2O2 toxicity relative to porphyrin 1P-Fe (MTT) (RIN-m cells; 20 μM, 30 min before 35 μM H2O2, 24 h): exhibit a greater protective effect; protective effect against H2O2 toxicity (MTT) (RIN-m cells; 1-50 μM before 35 μM H2O2): significant protective effect; neurorescue after SIN-1 insult (SH-SY5Y cells [2]; 20 μM added 0.5, 1.5 or 3 h after insult, 24 h (Example 11)): instigated neurorescue; cytoprotection against different SIN-1 concentrations (SH-SY5Y cells [2]; 25 μM corrole, FIG. 12C): protect cells against different SIN-1 concentrations; neuroprotective effect against SIN-1 induced toxicity (SH-SY5Y cells [2]; 10 and 20 μM, 30 min pretreatment, 24 h (Example 11)): dose-dependent neuroprotective effect; inhibition of neuronal death by SIN-1 (SH-SY5Y cells [2]; 10 and 20 μM, less potent than 2C-Mn and 3C-Mn): able to inhibit neuronal death; neuroprotective effect against 6-OHDA-induced toxicity (SH-SY5Y cells [3]; 1-20 μM, 30 min before 6-OHDA (60 μM), 24 h): dose-dependent neuroprotective effect; neurorescue after 6-OHDA insult (SH-SY5Y cells [3]; 6-OHDA (60 μM) for 0.5, 1.5, 3 and 6 h, then 10 μM, 24 h): instigated neurorescue; protection against H2O2-mediated cytotoxicity (MTT and ELISA) (NSC-34 cells; 30 min before H2O2 (200 μM)): significant protection
